Assay results taken from patent EP0200942B1, “New derivatives of an aminoketone” (NIPPON KAYAKU KABUSHIKI KAISHA, priority 1985, dated 1986).

What was measured:
[1] = system: ischemic decerebrate rigidity; assay: Action to ischemic decerebrate rigidity of rat (Fukuda et al method); assay type: in vivo, male Wistar rat; details: intravenous administration 3.5 mg/kg; average forepaw tension for 10 minutes at peak period after vs before administration
Source text: 2. Action to ischemic decerebrate rigidity of rat
The effects on the ischemic decerebrate rigidity were investigated by using Fukuda et al method (H. Fukuda, T. Ito, S. Hashimoto and Y. Kudo: Japan. J. Pharmacol., 24, 810 (1974)). The rigidity is due to hyperactivity of α-motorneurones. The rigid animals provide a good experimental model for some type of spasticity in man.
A tracheal cannula was inserted in each of male Wistar rat under ether anesthesia. Both of common carotid arteries were ligated and the basilar artery was cauterized with a bipolar coagulator to block the blood circulation and to prepare a rigidity sample. The rigidity was recorded as described below. A rat was fixed on its back on a fixing stand and its forepaws were allowed to grisp an end of a celluloid plate provided with strain gauges on both sides thereof. A change of the resistance observed when the celluloid plate was forced up by the rigidity of the forepaws was recorded as a tension through a bridge circuit on a self-balancing recorder. A rigidity inhibition rate was calculated according to the following equation: [formula] when C represents an average tension (g) for 10 minutes at peak period before the administration of a test compound and D represents an average tension (g) for 10 minutes at peak period recorded after the intravenous administration 3.5 mg/kg of a test compound.

[2] = system: Spinal reflex (flexor reflex); assay: Spinal reflex (flexor reflex) inhibitory action, evoked electromyogram in anesthetized rats; assay type: in vivo, male rats; Wistar strain; details: intravenous (i.v.) administration of 5 mg/kg in physiological saline; average amplitude over 30 minutes after vs 10 minutes before administration; rats anesthetized with urethane and α-chloralose
Protocol: 1. Spinal reflex (flexor reflex) inhibitory action
Animals (male rats; Wistar strain) were anesthetized with urethane and α-chloralose, and their tibial nerve was dissected, and stimulated (0.1 msec, 0.1 Hz, ultra-maximum stimulation) by the stimulator (Model MSE-3; Nippon Koden). […] The amplitude of this evoked electromyogram was recorded on a pen recorder through a peak holder.The activity of the compounds was expressed by flexor reflex inhibition rate. That is, the flexor reflex inhibition rate was calculated from the following equation (A): [formula] wherein A is the average amplitude of the electromyogram in the period of 10 minuts before the administration of the test compound, and B is the average amplitude of the electromyogram in the period of 30 minutes after the intravenous (i.v.) administration of 5 mg/kg of the test compound dissolved in a physiological saline solution.

[3] = Acute toxicity, LD50 in mice intravenously; details: mouse, in vivo, iv, read-out: LD₅₀ (Mice; i.v.)
Protocol: LD₅₀ (mg/kg) of the each test compound given to mice intravenously was determined.

Structure (SMILES) | Inhibition rate (%) (rigidity inhibition rate) [1] | Inhibition rate (%) (flexor reflex inhibition rate) [2] | LD50 [3]
COc1ccc(C(=O)C(C)CN2CCCC2)c2c1CCCC2 (stereo not drawn) [2-1, 1-(4-Methoxy-5,6,7,8-tetrahydro-1-naphthyl)-2-methyl-3-pyrrolidino-1-propanone] | 46.1% | 53.6% | 38.1 mg/kg
CCC(CN1CCCC1)C(=O)c1ccc(OC)c2c1CCCC2 (stereo not drawn) [2-11, 1-(4-Methoxy-5,6,7,8-tetrahydro-1-naphthyl)-2-ethyl-3-pyrrolidino-1-propanone] | 53.9% | 50.0% | 35.4 mg/kg
CC(CN1CCCC1)C(=O)c1ccc(C(F)(F)F)cc1 (stereo not drawn) [4-1, 1-(4-Trifluoromethylphenyl)-2-methyl-3-pyrrolidino-1-propanone] | 23.6% | 40.3% | 61.1 mg/kg
